Measured values reported in patent publication US8785470B2, “Heterocyclic compounds and uses thereof” (Infinity Pharmaceuticals, Inc., priority 2011, dated 2014).
pEC50, pIC50: −log10 of the molar value. Read-outs that look alike come from different tables or passages of the source.

Tests used:
PI3Kα = target: T1, PI3Kα (Homo sapiens, UniProt P42336); test: PI3-Kinase HTRF assay, PI3Kα; format: biochemical; conditions: bins Greater than 10 μM and Greater than 1 μM to 10 μM; 10 μM ATP, PIP2 at 10 μM; read-out: IC50 P13Kα
T1 construct: purchased Millipore Corporation 14-602-K
Excerpt: A PI3-Kinase HTRF® assay kit (cat No. 33-016) purchased from Millipore Corporation was used to screen compounds provided herein. This assay used specific, high affinity binding of the GRPI pleckstrin homology (PH) domain to PIP3, the product of a Class 1A or 1B PI3 Kinase acting on its physiological substrate PIP2. During the detection phase of the assay, a complex was generated between the GST-tagged PH domain and biotinylated short chain PIP3. The biotinylated PIP3 and the GST-tagged PH domain recruited fluorophores (Streptavidin-Allophycocyanin and Europium-labeled anti-GST respectively) to form the fluorescence resonance energy transfer (FRET) architecture, generating a stable time-resolved FRET signal. The FRET complex was disrupted in a competitive manner by non-biotinylated PIP3, a product formed in the PI3 Kinase assay.
PI3 Kinase α, β, γ and δ activity was assayed using the PI3 Kinase HTRF® assay kit (catalogue No. 33-016) purchased from Millipore Corporation. Purified recombinant PI3Kα (catalogue No. 14-602-K), PI3Kβ (catalogue No. 14-603-K), PI3Kγ (catalogue No. 14-558-K) and PI3Kδ (catalogue No. 14-604-K) were obtained from Millipore Corporation. Purified recombinant PI3K enzyme was used to catalyze the phosphorylation of phosphatidylinositol 4,5-bisphosphate (PIP2 at 10 μM) to phosphatidylinositol 3,4,5-trisphosphate (PIP3) in the presence of 10 μM ATP. The assay was carried out in 384-well format and detected using a Perkin Elmer EnVision Xcite Multilabel Reader. Emission ratios were converted into percent inhibitions and imported into GraphPad Prism software. The concentration necessary to achieve inhibition of enzyme activity by 50% (IC50) was calculated using concentrations ranging from 20 μM to 0.1 nM (12-point curve). IC50 values were determined using a nonlinear regression model available in GraphPad Prism 5. […]

Balb/c splenic B cells = test: B cell activation and proliferation assay; format: cell-based; conditions: Mus musculus, read-out: B cell proliferation EC50
Method: The ability of one or more subject compounds to inhibit B cell activation and proliferation is determined according to standard procedures known in the art. For example, an in vitro cellular proliferation assay is established that measures the metabolic activity of live cells. The assay is performed in a 96 well microtiter plate using Alamar Blue reduction. Balb/c splenic B cells are purified over a Ficoll-Paque™ PLUS gradient followed by magnetic cell separation using a MACS B cell Isolation Kit (Miletenyi). Cells are plated in 90 μl at 50.000 cells/well in B Cell Media (RPMI+10% FBS+Penn/Strep+50 μME5 mM HEPES). A compound provided herein is diluted in B Cell Media and added in a 10 μl volume. Plates are incubated for 30 min at 37° C. and 5% CO2 (0.2% DMSO final concentration). A 50 μl B cell stimulation cocktail is then added containing either 10 μg/ml LPS or 5 μg/ml F(ab′)2 Donkey anti-mouse IgM plus 2 ng/ml recombinant mouse IL4 in B Cell Media. Plates are incubated for 72 hours at 37° C. and 5% CO2. A volume of 15 μL of Alamar Blue reagent is added to each well and plates are incubated for 5 hours at 37° C. and 5% CO2. Alamar Blue fluoresce is read at 560Ex/590Em, and IC50 or EC50 values are calculated using GraphPad Prism 5.

[1] = column bins 1 μM to 100 nM (given as 100-1000) and Less than 100 nM

T1 sequence (P42336 whole entry): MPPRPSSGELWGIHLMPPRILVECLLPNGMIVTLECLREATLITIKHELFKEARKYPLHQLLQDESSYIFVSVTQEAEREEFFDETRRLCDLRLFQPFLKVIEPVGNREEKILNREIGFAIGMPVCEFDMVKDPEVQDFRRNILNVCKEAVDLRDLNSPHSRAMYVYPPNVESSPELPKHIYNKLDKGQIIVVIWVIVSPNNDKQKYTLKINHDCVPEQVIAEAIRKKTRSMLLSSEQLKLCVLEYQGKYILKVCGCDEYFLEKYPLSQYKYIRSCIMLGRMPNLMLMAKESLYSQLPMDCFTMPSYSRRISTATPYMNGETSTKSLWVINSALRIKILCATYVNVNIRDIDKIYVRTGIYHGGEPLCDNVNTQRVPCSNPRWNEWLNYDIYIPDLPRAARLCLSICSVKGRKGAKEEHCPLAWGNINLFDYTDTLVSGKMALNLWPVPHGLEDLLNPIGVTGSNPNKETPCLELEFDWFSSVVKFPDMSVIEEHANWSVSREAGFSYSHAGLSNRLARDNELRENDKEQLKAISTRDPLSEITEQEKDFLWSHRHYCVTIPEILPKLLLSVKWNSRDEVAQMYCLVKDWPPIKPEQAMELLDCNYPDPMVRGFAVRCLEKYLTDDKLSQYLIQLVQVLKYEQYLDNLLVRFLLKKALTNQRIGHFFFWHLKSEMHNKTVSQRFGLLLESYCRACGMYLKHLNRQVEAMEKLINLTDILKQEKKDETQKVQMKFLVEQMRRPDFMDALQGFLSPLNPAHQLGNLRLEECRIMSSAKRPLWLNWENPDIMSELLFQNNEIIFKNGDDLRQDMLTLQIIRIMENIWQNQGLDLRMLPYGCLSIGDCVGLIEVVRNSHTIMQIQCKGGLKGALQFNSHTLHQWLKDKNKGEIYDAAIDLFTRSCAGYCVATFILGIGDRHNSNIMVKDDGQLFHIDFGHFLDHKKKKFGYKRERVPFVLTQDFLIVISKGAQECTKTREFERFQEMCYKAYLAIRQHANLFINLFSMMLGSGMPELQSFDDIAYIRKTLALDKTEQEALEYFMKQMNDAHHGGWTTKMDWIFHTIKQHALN
T1 sequence (P27986 whole entry partner): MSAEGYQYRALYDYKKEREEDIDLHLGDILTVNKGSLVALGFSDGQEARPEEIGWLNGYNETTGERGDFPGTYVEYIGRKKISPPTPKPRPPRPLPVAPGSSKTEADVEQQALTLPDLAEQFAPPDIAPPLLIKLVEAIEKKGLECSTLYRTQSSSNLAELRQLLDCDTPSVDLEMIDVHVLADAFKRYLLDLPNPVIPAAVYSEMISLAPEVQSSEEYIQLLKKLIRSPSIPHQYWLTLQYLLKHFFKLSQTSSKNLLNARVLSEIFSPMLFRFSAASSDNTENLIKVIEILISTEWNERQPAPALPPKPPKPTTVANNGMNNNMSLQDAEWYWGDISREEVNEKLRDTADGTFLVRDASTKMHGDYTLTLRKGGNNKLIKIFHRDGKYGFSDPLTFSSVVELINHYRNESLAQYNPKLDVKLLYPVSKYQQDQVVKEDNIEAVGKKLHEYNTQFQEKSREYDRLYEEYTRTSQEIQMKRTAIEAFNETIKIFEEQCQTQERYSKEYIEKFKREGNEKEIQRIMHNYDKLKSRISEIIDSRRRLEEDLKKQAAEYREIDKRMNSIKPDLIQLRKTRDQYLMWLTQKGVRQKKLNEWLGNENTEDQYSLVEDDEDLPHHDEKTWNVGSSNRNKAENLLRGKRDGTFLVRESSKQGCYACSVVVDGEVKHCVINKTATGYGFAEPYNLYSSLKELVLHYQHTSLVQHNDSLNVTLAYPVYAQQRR

SMILES	pIC50 (PI3Kα)	pEC50 (Balb/c splenic B cells; [1])	pEC50 (Balb/c splenic B cells)
C[C@H](Nc1nc(N)ncc1C#N)c1cc2cccc(Cl)c2c(=O)n1-c1cc(F)ccc1F [Compound 264]	5.00 to 6.00	–	–
Cc1cc(N[C@@H](C)c2cc3cccc(Cl)c3c(=O)n2-c2ccccc2)nc(N)n1 [Compound 92, (S)-3-(1-((2-amino-6-methylpyrimidin-4-yl)amino)ethyl)-8-chloro-2-phenylisoquinolin-1(2H)-one]	–	6.00 to 7.00	–
COc1cc(-c2cccc3cc([C@H](C)Nc4nc(N)ncc4[N+](=O)[O-])n(-c4ccccc4)c(=O)c23)ccn1 [Compound 177]	5.00 to 6.00	> 7.00	–
C[C@H](Nc1nc(N)ncc1-c1cncs1)c1cc2cccc(Cl)c2c(=O)n1-c1ccccc1 [Compound 361]	5.00 to 6.00	> 7.00	–
C[C@H](Nc1nc(N)ncc1C#N)c1cc2cccc(-c3cccc(S(C)(=O)=O)c3)c2c(=O)n1-c1ccccc1 [Compound 164]	5.00 to 6.00	> 7.00	–
C[C@H](Nc1nc(N)ncc1C(=O)N(C)C)c1cc2cccc(-c3cnn(C)c3)c2c(=O)n1-c1ccccc1 [Compound 203]	5.00 to 6.00	> 7.00	–
CC#Cc1cccc2cc([C@H](C)Nc3nc(N)ncc3C#N)n(-c3ccccc3)c(=O)c12 [Compound 222]	5.00 to 6.00	> 7.00	–
C[C@H](Nc1nc(N)ncc1C#N)c1cc2cccc(Cl)c2c(=O)n1-c1ccccc1F [Compound 267]	5.00 to 6.00	–	–
Cc1ncc(-c2cnc(N)nc2N[C@@H](C)c2cc3cccc(Cl)c3c(=O)n2-c2ccccc2)s1 [Compound 372]	–	> 7.00	–
CCOc1nc(-c2cnc(N)nc2N[C@@H](C)c2cc3cccc(Cl)c3c(=O)n2-c2ccccc2)cs1 [Compound 369]	5.00 to 6.00	> 7.00	–
C[C@H](Nc1nc(N)ncc1C#N)c1cc2cccc(-c3ccc(O)nc3)c2c(=O)n1-c1ccccc1 [Compound 156]	5.00 to 6.00	> 7.00	–
CC(C)n1c([C@H](C)Nc2nc(N)ncc2C#N)cc2cccc(Cl)c2c1=O [Compound 325]	5.00 to 6.00	> 7.00	–
COc1cc(-c2cccc3cc([C@H](C)Nc4nc(N)ncc4C(=O)N4CC(F)(F)C4)n(-c4ccccc4)c(=O)c23)ccn1 [Compound 432]	–	6.00 to 7.00	–
C[C@H](Nc1nc(N)ncc1C#N)c1cc2cccc(Cl)c2c(=O)n1-c1cccnc1 [Compound 306]	–	> 7.00	–
COc1cc(-c2cccc3cc([C@H](C)Nc4nc(N)ncc4-c4ccc(O)c(F)c4)n(-c4ccccc4)c(=O)c23)ccn1 [Compound 159]	–	> 7.00	–
COc1cc(-c2cccc3cc([C@H](C)Nc4nc(N)ncc4-c4ccncc4)n(-c4ccccc4)c(=O)c23)ccn1 [Compound 169]	5.00 to 6.00	> 7.00	–
C[C@H](Nc1nc(N)ncc1C#N)c1cc2cccc(Cl)c2c(=O)n1-c1ccccc1 [Compound 8, (S)-2-amino-4-((1-(8-chloro-1-oxo-2-phenyl-1,2-dihydroisoquinolin-3-yl)ethyl)amino)pyrimidine-5-carbonitrile]	5.00 to 6.00	> 7.00	–
C[C@H](Nc1nc(N)ncc1C#N)c1cc2cccc(Cl)c2c(=O)n1C1CCCC1 [Compound 297]	–	> 7.00	–
COc1ncc(-c2cccc3cc([C@H](C)Nc4nc(N)ncc4C(F)(F)F)n(-c4ccccc4)c(=O)c23)cn1 [Compound 12]	–	> 7.00	–
C[C@H](Nc1nc(N)ncc1C#N)c1cc2cccc(-c3cnc4ccccc4c3)c2c(=O)n1-c1ccccc1 [Compound 50]	–	> 7.00	–
C[C@H](Nc1cc(N)ncc1C(N)=O)c1cc2cccc(Cl)c2c(=O)n1-c1ccccc1 [Compound 431]	–	> 7.00	–
COc1cc(-c2cccc3cc([C@H](C)Nc4nc(N)ncc4-c4cc(O)cc(F)c4)n(-c4ccccc4)c(=O)c23)ccn1 [Compound 161]	–	6.00 to 7.00	–
C[C@H](Nc1nc(N)ncc1C#N)c1cc2cccc(-c3ccnc(O)c3)c2c(=O)n1-c1ccccc1 [Compound 130]	–	> 7.00	–

SMILES	pIC50 (PI3Kα)	pEC50 (Balb/c splenic B cells; [1])	pEC50 (Balb/c splenic B cells)
COc1cncc(-c2cccc3cc([C@H](C)Nc4nc(N)ncc4C#N)n(C4CC4)c(=O)c23)c1 [Compound 106]	–	> 7.00	–
Cc1ncc(-c2cccc3nc([C@H](C)Nc4nc(N)ncc4C#N)n(-c4ccccc4)c(=O)c23)cn1 [Compound 63, (S)-2-amino-4-((1-(5-(2-methylpyrimidin-5-yl)-4-oxo-3-phenyl-3,4-dihydroquinazolin-2-yl)ethyl)amino)pyrimidine-5-carbonitrile]	–	> 7.00	–
C[C@H](Nc1nc(N)ncc1C#N)c1cc2cccc(-c3cccc(F)c3)c2c(=O)n1-c1ccccc1 [Compound 33]	5.00 to 6.00	–	–
C[C@H](Nc1nc(N)ncc1C#N)c1cc2cccc(-c3cnc4[nH]ccc4c3)c2c(=O)n1-c1ccccc1 [Compound 47]	–	> 7.00	–
COc1ncc(-c2cccc3cc([C@H](C)Nc4nc(N)ncc4C#N)n(-c4cccc(F)c4)c(=O)c23)cn1 [Compound 22]	–	> 7.00	–
COc1cncc(-c2cccc3nc([C@H](C)Nc4nc(N)ncc4C#N)n(-c4ccccc4)c(=O)c23)c1 [Compound 65]	5.00 to 6.00	–	–
C[C@H](Nc1nc(N)ncc1C#N)c1cc2cccc(C#CCCC(=O)N3CCOCC3)c2c(=O)n1-c1ccccc1 [Compound 193]	–	> 7.00	–
COc1cc(-c2cccc3cc([C@H](C)Nc4nc(N)ncc4-c4cccnc4)n(-c4ccccc4)c(=O)c23)ccn1 [Compound 133]	5.00 to 6.00	–	–
C[C@H](Nc1nc(N)ncc1C#N)c1cc2cccc(-c3cnc4[nH]ccc4c3)c2c(=O)n1-c1cccc(F)c1 [Compound 25]	–	> 7.00	–
COc1cc(-c2cccc3cc([C@@H](C)Nc4nc(N)ncc4C#N)n(-c4ccccc4)c(=O)c23)ccn1 [Compound 380]	–	> 7.00	–
COc1ncc(-c2cccc3cc([C@H](C)Nc4nc(N)ncc4C(F)(F)F)n(-c4cccc(F)c4)c(=O)c23)cn1 [Compound 31]	–	> 7.00	–
Nc1nccc(Cl)n1 [Compound 79, 2-amino-4-chloro-pyrimidine]	–	> 7.00	–
C[C@H](Nc1ncnc(N)c1[N+](=O)[O-])c1cc2cccc(Cl)c2c(=O)n1-c1ccccc1 [Compound 129]	–	> 7.00	–
Cc1nc(N)nc(N[C@@H](C)c2cc3cccc(Cl)c3c(=O)n2-c2ccccc2)c1C#N [Compound 89, (S)-2-amino-4-(1-(8-chloro-1-oxo-2-phenyl-1,2-dihydroisoquinolin-3-yl)ethylamino)-6-methylpyrimidine-5-carbonitrile]	–	> 7.00	–
COc1nc(-c2cnc(N)nc2N[C@@H](C)c2cc3cccc(Cl)c3c(=O)n2-c2ccccc2)cs1 [Compound 223]	–	–	> 7.00
COc1cc(-c2cccc3cc([C@H](C)Nc4nc(N)ncc4C(=O)N(C)C)n(-c4ccccc4)c(=O)c23)ccn1 [Compound 112]	–	> 7.00	–
C[C@H](Nc1nc(N)ncc1C(=O)N1CCC1)c1cc2cccc(-c3cnn(C)c3)c2c(=O)n1-c1ccccc1 [Compound 204]	–	–	5.00 to 6.00
COc1cc(-c2cccc3cc([C@H](C)Nc4nc(N)ncc4C#N)n(C4CC4)c(=O)c23)ccn1 [Compound 107]	–	> 7.00	–
C[C@H](Nc1nc(N)ncc1C#N)c1cc2cccc(Oc3ccccc3)c2c(=O)n1-c1ccccc1 [Compound 151]	–	> 7.00	–
C[C@H](Nc1nc(N)ncc1C#N)c1cc2cccc(-c3cncc(N(C)C)c3)c2c(=O)n1-c1ccccc1 [Compound 96]	–	> 7.00	–
C[C@H](Nc1nc(N)ncc1C#N)c1cc2cccc(Cl)c2c(=O)n1-c1ccc(F)cc1F [Compound 255]	5.00 to 6.00	–	–
COc1cncc(-c2cccc3cc([C@H](C)Nc4nc(N)ncc4C#N)n(-c4ccccc4)c(=O)c23)c1 [Compound 9, (S)-2-amino-4-((1-(8-(5-methoxypyridin-3-yl)-1-oxo-2-phenyl-1,2-dihydroisoquinolin-3-yl)ethyl)amino)pyrimidine-5-carbonitrile]	–	> 7.00	–
COc1cc(-c2cccc3cc([C@H](C)Nc4nc(N)ncc4-c4ccc(F)c(O)c4)n(-c4ccccc4)c(=O)c23)ccn1 [Compound 163]	–	6.00 to 7.00	–
